The values below come from PMC10872856 (The Prostate, 2023).

Molecules are shown by their SMILES. pIC50: −log10 of the molar value.

In this experiment the target is T1, N-myristoyltransferase 1 (NMT1) (Homo sapiens, UniProt P30419).
T1 sequence (P30419 1-496): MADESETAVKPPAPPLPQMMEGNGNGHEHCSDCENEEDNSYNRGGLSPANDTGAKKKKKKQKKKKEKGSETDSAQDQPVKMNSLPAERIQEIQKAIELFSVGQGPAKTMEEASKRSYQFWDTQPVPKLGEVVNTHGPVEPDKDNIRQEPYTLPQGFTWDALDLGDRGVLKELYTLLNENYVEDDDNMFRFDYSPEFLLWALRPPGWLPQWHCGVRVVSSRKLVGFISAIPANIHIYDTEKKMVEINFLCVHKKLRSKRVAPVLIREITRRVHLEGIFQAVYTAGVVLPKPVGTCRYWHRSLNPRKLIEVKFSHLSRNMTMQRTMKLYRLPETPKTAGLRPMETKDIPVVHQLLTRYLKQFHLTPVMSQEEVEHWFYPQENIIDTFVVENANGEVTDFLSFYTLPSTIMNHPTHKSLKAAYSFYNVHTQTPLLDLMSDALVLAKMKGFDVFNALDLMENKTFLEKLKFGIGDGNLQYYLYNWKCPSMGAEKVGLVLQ
The experiment is described as follows: fluorogenic CoA-release enzyme assay. It counts as biochemical.

In general, pIC50 refers to the negative decadic logarithm of the IC50, by convention in mol/L. A lower pIC50 goes with a high IC50. With `CCCCCCCCCCCCCCN[C@H](CO)[C@H](O)c1ccc([N+](=O)[O-])cc1` [LCL204, (1R,2R)-LCL204], the pIC50 is 5.64.
